The structures appear in SMILES notation. Marks after values point to notes of the source that are not given here.

From patent publication US8623924B2, “Compositions and methods for modulating metabolic pathways” (Nusirt Sciences, Inc., priority 2011, dated 2014) come the findings set out here.

Holding throughout (format): in vivo
The subject of one test is MCP-1. In words: Inflammatory biomarker MCP-1 in diet-induced obese mice. The settings on record: 6 weeks on diet, low resveratrol 12.5 mg/kg diet, low HMB 2 g CaHMB/kg diet, high HMB 10 g CaHMB/kg diet, leucine 2.42% of diet.
Test [1] can be described thus: Indices of insulin sensitivity (plasma glucose, insulin, HOMAIR) in diet-induced obese mice. The conditions noted are these: 6 weeks on diet, low resveratrol 12.5 mg/kg diet, low HMB 2 g CaHMB/kg diet, high HMB 10 g CaHMB/kg diet, leucine 2.42% of diet. The source says:
Insulin sensitivity can be measured using a variety of techniques, including HOMAIR. HOMAIR, which is the homeostasis model assessment of insulin resistance can be used as a screening index of changes in insulin sensitivity. HOMAIR can be calculated via standard formula from fasting plasma insulin and glucose as follows: HOMAIR=[Insulin (uU/mL)×glucose (mM)]/22.5.
(§1) Six week old male c57/BL6 mice were fed a high-fat diet with fat increased to 45% of energy (Research Diets D12451) for 6 weeks to induce obesity.
(§2) At the of the treatment period (6 weeks) all animals were humanely euthanized, and blood and tissues collected for further experiments.

Test [2] can be described thus: MicroPET/CT glucose and palmitate uptake in diet-induced obese mice. The settings on record: 6 weeks on diet, low resveratrol 12.5 mg/kg diet, low HMB 2 g CaHMB/kg diet, high HMB 10 g CaHMB/kg diet, leucine 2.42% of diet.
Text: as §1
MicroPET/CT (Glucose and Palmitate Uptake): At the end of the treatment period (6 weeks of treatment) subgroups of each treatment diet group (5 animals/group, 35 animals total) were used to measure whole body glucose and palmitate uptake via PET/CT Imaging. To visualize these compounds using microPET imaging, the glucose or palmitate was labeled with fluorine-18 (108 mins half life) or carbon-11 (20 mins half life), respectively. Each mouse was fasted for 4 hours, then anesthetized using 1-3% isoflurane delivered by nose cone or in a mouse-sized induction chamber purpose-built for small animal imaging protocols. While under anesthesia the mice were injected iv with <2 mCi of each tracer, then be left for a period of time (minutes to up ˜1 hour) to allow the uptake of the tracer. During the scan, mice were kept warm using a thermostatically controlled heated bed and were treated with ophthalmic ointment prior to scanning. Following the live scan the mice were returned to their cage and revived. Mice were monitored constantly during this time. Following live data acquisition the mice were sacrificed by isoflurane overdose and organs harvested for further experiments.

A short description of test [3]: Body weight, weight gain and visceral adiposity in diet-induced obese mice. The conditions noted are these: 6 weeks on diet, low resveratrol 12.5 mg/kg diet, low HMB 2 g CaHMB/kg diet, high HMB 10 g CaHMB/kg diet, leucine 2.42% of diet.
Text: as §1, §2

Test [4] is described as follows: Oxygen consumption/substrate utilization (metabolic chambers) in diet-induced obese mice. The conditions noted are these: low resveratrol 12.5 mg/kg diet, low HMB 2 g CaHMB/kg diet, high HMB 10 g CaHMB/kg diet, leucine 2.42% of diet. On the procedure: as §1
Oxygen Consumption/Substrate Utilization: at the end of the obesity induction period (day 0 of treatment group) and at 2 weeks and 6 weeks of treatment, oxygen consumption and substrate utilization was measured via metabolic chambers using the Comprehensive Lab Animal Monitoring Systems (CLAMS, Columbus Instruments, Columbus, Ohio) in subgroups of each treatment group. Each animal was placed in individual cages without bedding that allow automated, non-invasive data collection. Each cage is an indirect open circuit calorimeter that provides measurement of oxygen consumption, carbon dioxide production, and concurrent measurement of food intake. All mice were acclimatized to the chambers for 24 hours prior to the experiment and maintained under the regular 12:12 light:dark cycle with free access to water and food. All experiments were started in the morning and data were collected for 24 hours. Each chamber was passed with 0.6 l of air/min and was sampled for 2 min at 32-minute intervals. Exhaust O2 and CO2 content from each chamber was compared with ambient O2 and CO2 content. Food consumption was measured by electronic scales.

The next test relates to C-reactive protein. In words: Inflammatory biomarker C-reactive protein in diet-induced obese mice. The settings on record: 6 weeks on diet, low resveratrol 12.5 mg/kg diet, low HMB 2 g CaHMB/kg diet, high HMB 10 g CaHMB/kg diet, leucine 2.42% of diet.
The subject of a further test is Adiponectin. In words: Adiponectin in diet-induced obese mice. The conditions noted are these: 6 weeks on diet, low resveratrol 12.5 mg/kg diet, low HMB 2 g CaHMB/kg diet, high HMB 10 g CaHMB/kg diet, leucine 2.42% of diet.

On to `CC(C)(O)CC(=O)O` [HMB], for which, in the test on MCP-1, the “MCP-1 (pg/mL)” value is 116.8 ± 9.3^a pg/mL. For the same molecule, in test [1], the HOMAIR is given as 1.93 ± 0.32^a. Besides, in test [1] (plasma), the “Glucose (mM)” value is given as 4.28 ± 0.49^a mM and the “Insulin (μU/mL)” value is recorded as 8.3 ± 1.1^a μU/mL. Besides, in test [2], the “Fat oxidation (PET palmitate uptake; Muscle SUV)” value is listed as 1.90 ± 0.29^a SUV and the “Muscle Glucose Uptake (18F-deoxyglucose SUV)” value is 2.99 ± 0.42^a SUV. In test [3], the “Visceral Adipose Volume (mm^3)” value is 6184 ± 460^a mm^3, the “Weight (g)” value is given as 40.3 ± 2.1^a g and the “Weight gain” value is listed as 22.5 ± 1.2 g. For the same molecule, in test [4], the “Heat Production” value is given as 0.526 ± 0.011^a and the “Respiratory Exchange Ratio (24 hr RER)” value is 0.844 ± 0.012^a. For the same molecule, the “C-reactive protein” value in the test with C-reactive protein is 98.6 ± 5.1 ng/mL. The “Adiponectin (ng/mL)” value in the test on Adiponectin is listed as 11.1 ± 1.6^a ng/mL.
